The source of these data is PubChem BioAssay (NCI).

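Compound exposure: 48 hours, 5 concentrations, 96-well plates. GI50 marks 50% less growth. The concentration for full growth arrest is given as TGI.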 Some results are limits rather than exact numbers.

Holding throughout (assay): NCI anticancer screen, dose series, 48 h
Test [1] deals with ACHN renal.
Test [2] relates to HT29 colon.
Test [3] relates to M14 melanoma.
In test [4] the test system is MOLT-4 leukemia.
The subject of test [5] is SK-MEL-28 melanoma.
Test [6] concerns HCT-15 colon.
Test [7] has as its system HOP-62 NSCLC.
In test [8] the test system is NCI-H226 lung.
Test [9] has as its system OVCAR-4 ovarian.
For test [10], the system named is MDA-MB-435.

Take `COc1cc(C2c3cc4c(cc3[C@H](NC(=O)c3cccs3)C3COC(=O)[C@H]23)OCO4)cc(OC)c1OC` (stereo not given in full): the TGI in test [1] is 18.7 µM; in test [2], 11.2 µM; in test [3], 33.7 µM; in [4] it was 24.5 µM; in [5], 83.9 µM.

`Cc1ccccc1N=Cc1ccc(N(CCC#N)S(=O)(=O)c2ccccc2)cc1`: the TGI in [1], in test [6], in [7], in test [2], in [3] and in test [4] was more than 100 µM throughout. The TGI in [8], in test [9] and in test [5] was more than 100 µM throughout.

With `[N-]=[N+]=Nc1ccccc1-[n+]1noc([O-])c1Br`, the TGI in test [1], in test [6], in test [7], in test [2], in test [3] and in test [4] was more than 100 µM each time. Besides, the TGI in test [8], in test [9] and in [5] was more than 100 µM in each case.

As to `COc1ccc2nc3cc(Cl)ccc3c(NCCC(=O)OCC(O)C(O)C(O[C@H](C)C(=O)NC(C)C(=O)NC(CCC(N)=O)C(=O)OCc3ccccc3)C(C=O)NC(C)=O)c2c1` (stereo not given in full), the TGI in test [1] worked out at 32.2 µM; in test [6], 52.4 µM; in test [7], 33.9 µM; in [2] it was 41.3 µM; in test [3] it was 35.5 µM; in test [4], 44.2 µM. Moreover, the TGI stood at 37.8 µM in [8], 34.3 µM in [9] and 32.1 µM in test [5].

Take `C[C@]12CCC3[C@@H](C[C@H]4OC(=O)[C@@]35CCC(=O)C=C45)C1CCC2=O` (stereo not given in full): the TGI in test [1], in test [6], in test [2], in test [3], in [4] and in test [8] was more than 100 µM in each case. In test [5], this molecule registered a TGI of more than 100 µM.

Turning to `COC(=O)CCC(=O)CC(=O)C(=O)Nc1ccc(F)cc1`, the TGI in test [1], in test [6], in test [7], in test [2], in test [3] and in test [4] was more than 100 µM throughout. Further, the TGI in [8], in test [9] and in test [5] was more than 100 µM each time.

Regarding `COc1ccc(C(=O)C(c2ccc(OC)cc2)C2C(=O)Oc3ccccc32)cc1` (stereo not given), the GI50 in [1], in test [6], in test [2], in test [3], in test [4] and in [8] was more than 100 µM in each case. Besides, the GI50 in test [9] and in test [5] was more than 100 µM throughout. Further, the TGI in test [1], in [6], in test [2], in test [3], in test [4] and in [8] was more than 100 µM throughout. The TGI in [9] and in test [5] was more than 100 µM each time.

In the case of `Cc1cc(C)nc(NS(=O)(=O)c2ccc(NC(=O)c3cccc4c(Nc5ccc(S(=O)(=O)Nc6nc(C)cc(C)n6)cc5)c5ccccc5nc34)cc2)n1`, the TGI in test [1] came to 49.8 µM; in [6] it was 49 µM; in [7], 66 µM; in [2] it was 43.9 µM; in test [3], 54.9 µM; in test [4], 62.8 µM. Also, the TGI in test [9] stood at 64.1 µM; in test [5], 46 µM.

As for `COc1ccc(CN2C(=O)C(Cc3cc(OC)c(OC)c(C)c3OC)N(C(=O)OC(C)C)C(=O)/C2=C/c2cc(OC)c(OC)c(C)c2OC)cc1` (stereo not given), the TGI in test [1], in test [7], in test [2], in [3], in test [4] and in test [8] was more than 100 µM throughout. In addition, the TGI in test [9] and in test [5] was more than 100 µM in each case.

Take `COC(=O)CSc1ccccc1`: the TGI in test [1], in test [6], in test [7], in test [2], in test [3] and in [4] was more than 100 µM each time. This molecule also came in with a TGI in test [9] of more than 100 µM.

Take `Cc1cc(Cl)ccc1NC(=O)/C(Cl)=C(/Cl)C(=O)O`: the TGI in [1] came out at 36.1 µM; in [6] it was 37.9 µM; in [7] it was 47.7 µM; in [2] it was 57.7 µM; in test [3], 72.1 µM; in test [10], 45.9 µM. In test [5], this molecule displayed a TGI of 41 µM.

On to `COc1c(OC(C)=O)c(OC(C)=O)cc2c1-c1ccc(OC)c(=O)cc1C(NC(C)=O)CC2` (stereo not given), for which the TGI was more than 100 µM in test [1]; more than 70 µM in test [6]; more than 73 µM in test [7]; more than 100 µM in test [3]; more than 85.8 µM in [4]; 1.09 µM in [8]. The TGI in test [9] and in test [5] was more than 100 µM in each case.

Take `CN(C)c1ccccc1CC(c1c[nH]c2ccccc12)c1c[nH]c2ccccc12`: the TGI in [1] turned out to be 20.6 µM; in test [6], 28.8 µM; in [7] it was 23.3 µM; in test [2], 17.8 µM; in test [3] it was 24 µM; in test [4], 21.7 µM. The TGI stood at 25.7 µM in test [8] and 21.1 µM in [9].

Regarding `Nc1nc(=O)n(C2CC(O)C(O)C(CO)O2)cc1F` (stereo not given), the TGI in test [1], in test [6], in test [7], in [2], in test [3] and in [4] was more than 100 µM each time. Also, the TGI in test [8], in test [9] and in test [5] was more than 100 µM throughout.

As to `O=C(Nc1ccc(Cl)c(Cl)c1)C(=O)Nn1c(=S)[nH]c2ccccc2c1=O`, the TGI in test [1], in test [6], in test [7], in test [2], in test [3] and in test [4] was more than 100 µM each time. Moreover, the TGI in [8], in test [9] and in test [5] was more than 100 µM throughout.

`O=c1oc2c3ccc4ccccc4c3n(CCN3CCOCC3)c2c2ccccc12`: the TGI in [1] is more than 100 µM; in test [7], more than 100 µM; in [2] it was more than 100 µM; in test [3], more than 100 µM; in test [4], 18.5 µM; in [9], more than 100 µM. This molecule gave a TGI in [5] of more than 100 µM.

With `COc1ccc(NC(=O)CC/C(CC(=O)c2ccccc2Cl)=N\Nc2nnc(C)n2N)cc1`, the TGI in test [1], in [6], in [2], in test [4], in test [8] and in test [9] was more than 100 µM each time. Further, the TGI in test [5] was more than 100 µM.

As to `COc1ccc2c(c1)CCc1cnn(C3OC(COC(C)=O)C(OC(C)=O)C(OC(C)=O)C3OC(C)=O)c1-2` (stereo not given), the TGI is more than 100 µM in test [1]; more than 100 µM in test [6]; more than 100 µM in [7]; more than 100 µM in test [2]; more than 100 µM in [3]; 74.3 µM in test [4]. For the same molecule, the TGI in [8] and in test [5] was more than 100 µM throughout.

For the molecule `COCC1C(=O)c2cc3c(cc2C12C=CC1(C=C2)OCCO1)OCO3` (stereo not given), the TGI in test [1] worked out at 25.3 µM; in test [6], 2.96 µM; in test [7], 36.2 µM; in [2] it was 15 µM; in test [3], 12.6 µM; in [4] it was 9.6 µM. Moreover, the TGI in test [8] was determined as 22.8 µM; in test [9], 27.4 µM; in test [5], 28.1 µM.

As to `CCOC(=O)C1c2[nH]c3ccccc3c2CCN1C(=O)c1ccco1` (stereo not given), the TGI in [1], in test [6], in test [7], in test [2], in [3] and in [10] was more than 10 µM in each case. The TGI in [4], in [9] and in test [5] was more than 10 µM throughout.

With `CN(C)c1ccc(/C=C/C(=O)c2ccccc2)cc1Br`, the TGI was 51.1 µM in test [1]; 54.7 µM in test [6]; more than 100 µM in test [7]; 51 µM in [2]; 27.3 µM in [3]; 69 µM in [4]. For the same molecule, the TGI in test [9] worked out at 34.5 µM; in test [5] it was 30.5 µM.

For `COc1ccc(C(=O)/C(=N/Nc2ccccc2)c2ccc(OC)cc2)cc1`, the TGI in test [1], in test [6], in test [2], in test [4], in [8] and in test [9] was more than 100 µM throughout. In [5], this molecule had a TGI of more than 100 µM.

Turning to `Cc1cc2c(cc1C)N1Cc3c(ccc(C)c3C)N(C2)C1` (tested in a mixture with another compound), the TGI in [7], in test [2], in [3], in test [4], in test [8] and in [9] was more than 100 µM in each case. This molecule also came in with a TGI in [5] of more than 100 µM.

For `O=C1C(c2ccc([N+](=O)[O-])cc2)=[N+]([O-])c2ccccc21`, the TGI in [1] is more than 100 µM; in test [6], 54.4 µM; in test [7] it was 82.3 µM; in [2], more than 100 µM; in test [3], more than 100 µM; in test [4] it was more than 100 µM. The TGI in test [8] is more than 100 µM; in test [9], 21.7 µM; in test [5], 77.2 µM.

In the case of `O=c1cc2n(c(=O)[nH]1)C1OC(C(O)C1O)[C@H]2CCO` (stereo not given in full), the TGI in [1], in [7], in test [2], in test [4], in test [8] and in [9] was more than 100 µM in each case. In addition, the TGI in test [5] was more than 100 µM.

For the molecule `CN(C)c1ccc(/C=C(\C#N)c2cc3ccccc3n2C)cc1`, the GI50 in test [1] is 0.386 µM; in test [6], 0.0687 µM; in test [7], 0.296 µM; in test [2] it was 0.121 µM; in test [3], 0.075 µM; in test [4], 0.32 µM. For the same molecule, the GI50 in test [8] was 1.46 µM; in test [9] it was 0.701 µM; in [5], 1.07 µM. Also, the TGI in [1] was more than 100 µM; in [6] it was more than 100 µM; in test [7], more than 100 µM; in test [2], 5.64 µM; in test [3], more than 100 µM; in test [4] it was more than 100 µM. In addition, the TGI in [8], in test [9] and in test [5] was more than 100 µM in each case.

For `O=c1c2cc(Br)ccc2[nH]c(=S)n1-c1ccc(Br)cc1`, the TGI in test [1], in test [6], in test [7], in test [2], in test [4] and in test [8] was more than 100 µM throughout. Also, the TGI in test [9] and in test [5] was more than 100 µM in each case.

On to `O=C(CC1(O)C(=O)Nc2c(Cl)cccc21)c1ccccc1` (stereo not given), for which the TGI in test [1], in [6], in test [7], in test [2], in test [3] and in [4] was more than 100 µM each time. In addition, the TGI in test [8], in [9] and in test [5] was more than 100 µM each time.

In the case of `O=C(CCCCC(=O)N/N=C\c1ccccc1Cl)N/N=C\c1ccccc1Cl`, the GI50 in test [1] is 1.91 µM; in test [6], 3.08 µM; in test [7] it was 3.22 µM; in test [3], 2.06 µM; in test [8], 15.4 µM; in test [9] it was 7.55 µM. Moreover, in test [5], the GI50 is 61.3 µM. Further, the TGI is more than 100 µM in [1]; more than 100 µM in [6]; 24.6 µM in test [7]; more than 100 µM in [3]; more than 100 µM in [8]; more than 100 µM in test [9]. The TGI in test [5] was more than 100 µM.
